Results on seven compounds are retold here after US9447100B2, “Substituted pyrazolo[1,5-A] pyrimidines as calcium receptor modulating agents” (Takeda Pharmaceutical Company Limited, priority 2002, dated 2016).

One assay addresses T1, human CaR (Homo sapiens, UniProt P41180).
T1 construct: expressed in transfected cells; host or cells: CHO-K1 cells stably transfected with pMSRαneo-CaR (cDNA amplified from human kidney cDNA); membrane fraction used
T1 sequence (P41180 20-1078): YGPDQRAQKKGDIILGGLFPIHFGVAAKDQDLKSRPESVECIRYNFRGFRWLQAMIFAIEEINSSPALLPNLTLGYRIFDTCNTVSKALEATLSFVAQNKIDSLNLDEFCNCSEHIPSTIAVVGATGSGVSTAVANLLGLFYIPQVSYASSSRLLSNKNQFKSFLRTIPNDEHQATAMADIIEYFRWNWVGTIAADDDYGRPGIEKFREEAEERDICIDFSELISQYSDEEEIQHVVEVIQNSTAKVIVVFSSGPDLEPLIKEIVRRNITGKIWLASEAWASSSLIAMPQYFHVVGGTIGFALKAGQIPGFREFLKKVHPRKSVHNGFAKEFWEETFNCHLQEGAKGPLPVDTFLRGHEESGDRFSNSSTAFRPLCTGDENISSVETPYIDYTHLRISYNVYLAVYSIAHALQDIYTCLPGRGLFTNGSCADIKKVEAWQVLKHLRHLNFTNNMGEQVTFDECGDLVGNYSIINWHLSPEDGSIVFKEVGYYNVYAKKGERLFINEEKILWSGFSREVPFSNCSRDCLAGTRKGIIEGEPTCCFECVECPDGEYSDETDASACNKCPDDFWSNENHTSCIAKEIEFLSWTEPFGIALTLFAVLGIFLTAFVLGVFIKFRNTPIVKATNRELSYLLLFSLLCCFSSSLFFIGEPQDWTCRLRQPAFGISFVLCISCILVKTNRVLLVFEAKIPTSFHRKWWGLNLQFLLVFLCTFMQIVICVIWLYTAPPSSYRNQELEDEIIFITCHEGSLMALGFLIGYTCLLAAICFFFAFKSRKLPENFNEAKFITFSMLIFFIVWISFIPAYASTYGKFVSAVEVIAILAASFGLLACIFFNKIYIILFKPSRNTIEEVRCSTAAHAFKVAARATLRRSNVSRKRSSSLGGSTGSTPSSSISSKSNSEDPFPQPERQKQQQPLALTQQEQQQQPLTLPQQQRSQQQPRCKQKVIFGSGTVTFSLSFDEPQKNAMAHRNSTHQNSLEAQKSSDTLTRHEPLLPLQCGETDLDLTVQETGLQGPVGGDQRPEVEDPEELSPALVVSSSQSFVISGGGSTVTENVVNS
As to the kind of experiment: [35S]-GTPγS binding assay in membrane fraction of human CaR-expressing CHO cells. The format is biochemical. The conditions noted are these: test compound 1 μM; relative to binding with 6 mM calcium only (100×(t′−b)/(t−b)); compounds marked antagonist. On the procedure:
Preparation of membrane fraction is described bellow. The human CaR-expressing CHO cells were inoculated to a F500 flask in 1.8×10^5 cells/flask followed by cultivation for 2 days. The cells were scraped with 10 ml of Phosphate-Buffered Saline containing 0.02% EDTA. After centrifugation (2000 rpm, 10 min) of the cells, the cell pellet was resuspended into 12 ml of homogenate buffer solution (10 mM NaHCO3, 1 mM EDTA, 1× Protease inhibitor cocktail (pH 7.4)) and homogenized by Polytron™ (20000 rpm, 1 min). The cell debris was removed by centrifugation (2000 rpm, 10 min), and then the CaR-expressing cell membrane fraction was collected by ultracentrifugation (Beckman 70 Ti type rotor, 30000 rpm, 1 hour).
The GTPγS binding activity was measured as follows. Twenty μg of the CaR-expressing cell membrane was incubated with test compounds for 10 min. The assays were carried out at room temperature for an hour in a reaction solution mixture containing 20 mM HEPES (pH. 7.4), 100 mM NaCl, 1 mM MgCl2, 167 μg/ml DTT, 5 μM guanosine 5′-diphosphate, 0.4 nM [^35S]-guanosine 5′-(γ-thio)triphosphate ([^35S]-GTPγS) and 6 mM CaCl2. The mixture was filtered through a GF/C filter. After washing fourth with 300 μl of Phosphate-Buffered Saline, the amount of [^35S]-GTPγS bound to the filter was measured using a Top-count scintillation counter.
Effects of test compounds on [^35S]-GTPγS binding were expressed in percentage terms. This was calculated from the equation [100×(t′−b)]/(t−b) where t′, t and b are values of [^35S]-GTPγS binding (dpm), t′ in the presence of 6 mM calcium and the test compound, t in the presence of 6 mM calcium only and b in the absence of both 6 mM calcium and the test compound.
As for `COc1ccc(C(CNC(=O)c2cnn3c2NC(c2ccccc2)CC3C(F)(F)F)c2ccccc2)cc1` (stereo not shown) [Example 318, N-(2-(4-methoxyphenyl)-2-phenylethyl)-5-phenyl-7-(trifluoromethyl)-4,5,6,7-tetrahydropyrazolo[1,5-a]pyrimidine-3-carboxamide], the “[35S]-GTPγS binding (%)” value is recorded as 34 (1 μM) %. As to `CCC(CC)(NC(=O)c1cnn2c1NC(c1ccccc1)CC2(C)C)c1ccc(-c2ccsc2)cc1` (stereo not shown) [Example 423, N-(1-ethyl-1-(4-(3-thienyl)phenyl)propyl)-7,7-dimethyl-5-phenyl-4,5,6,7-tetrahydropyrazolo[1,5-a]pyrimidine-3-carboxamide], the “[35S]-GTPγS binding (%)” value was 0 (1 μM) %. On to `CCC(CC)(NC(=O)c1cnn2c1NC(c1ccccc1)CC2C(F)(F)F)c1ccc(C(F)(F)F)cc1` (stereo not shown) [Example 310, N-(1-ethyl-1-(4-(trifluoromethyl)phenyl)propyl)-5-phenyl-7-(trifluoromethyl)-4,5,6,7-tetrahydropyrazolo[1,5-a]pyrimidine-3-carboxamide], for which the “[35S]-GTPγS binding (%)” value was 0 (1 μM) %. The same measure, in the same setting: to `CC1(C(F)(F)F)CC(c2ccccc2)Nc2c(C(=O)NC34CC5CC(CC(C5)C3)C4)cnn21` (stereo not shown) [Example 436, N-(1-adamantyl)-7-methyl-5-phenyl-7-(trifluoromethyl)-4,5,6,7-tetrahydropyrazolo[1,5-a]pyrimidine-3-carboxamide] belongs 12 (1 μM) %.

With `Cc1ccc(C(OC2CCN(C(=O)c3cnn4c3NC(c3ccccc3)CC4C(F)(F)F)CC2)c2ccc(C)cc2)cc1` (stereo not shown) [Example 312, 3-((4-(bis(4-methylphenyl)methoxy)-1-piperidinyl)carbonyl)-5-phenyl-7-(trifluoromethyl)-4,5,6,7-tetrahydropyrazolo[1,5-a]pyrimidine], the “[35S]-GTPγS binding (%)” value is 10 (1 μM) %. As for `COc1ccc(C(NC(=O)c2cnn3c2NC(c2ccccc2)CC3C)c2ccc(OC)cc2)cc1` (stereo not shown) [Example 335, N-(bis(4-methoxyphenyl)methyl)-7-methyl-5-phenyl-4,5,6,7-tetrahydropyrazolo[1,5-a]pyrimidine-3-carboxamide], the “[35S]-GTPγS binding (%)” value is on record as 0 (1 μM) %.

Staying with this assay, now noted: test compound 10 μM; relative to binding with 6 mM calcium only (100×(t′−b)/(t−b)); compound marked agonist.
As to `O=C(NCC(c1ccccc1)N1CCCC1)c1cnn2c1N[C@@H](c1ccccc1)C[C@H]2C(F)(F)F` (stereo in doubt) [Example 111, 5-phenyl-N-(2-phenyl-2-(1-pyrrolidinyl)ethyl)-7-(trifluoromethyl)-4,5,6,7-tetrahydropyrazolo[1,5-a]pyrimidine-3-carboxamide], the “[35S]-GTPγS binding (%)” value is 256 (10 μM) %.
